Source: doi:10.1101/2022.06.05.494897v1 (biorxiv, 2022)
Read-outs that look alike come from different tables or passages of the source.

Assays:
Type in all cases: biochemical
SARS-CoV-2 3CL^pro = SARS-CoV-2 3CL^pro (Severe acute respiratory syndrome coronavirus 2, UniProt P0DTD1)
human cathepsin L = human cathepsin L (Homo sapiens, UniProt P07711); test: fluorogenic peptide cleavage assay
human cathepsin B = human cathepsin B (Homo sapiens, UniProt P07858); test: fluorogenic peptide cleavage assay

Sequence of human cathepsin L (P07711 114-333 limits assumed): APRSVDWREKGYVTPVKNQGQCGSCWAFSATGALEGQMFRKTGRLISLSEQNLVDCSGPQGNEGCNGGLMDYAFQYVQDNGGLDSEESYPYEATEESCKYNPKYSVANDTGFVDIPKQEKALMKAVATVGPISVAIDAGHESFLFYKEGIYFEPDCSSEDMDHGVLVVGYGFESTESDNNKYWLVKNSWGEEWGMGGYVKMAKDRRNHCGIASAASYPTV

Compound: N-((S)-1-(2-Acetyl-2-(((S)-2-oxopyrrolidin-3-yl)methyl)hydrazineyl)-4-methyl-1-oxopentan-2-yl)-4-fluoro-1H-indole-2-carboxamide [compound 12]
- IC50 (SARS-CoV-2 3CL^pro; […], no CFA warhead, 30 min preincubation, pH 7.3, 1 mM DTT, ambient temperature): 178 nM

Compound: CC(C)C[C@H](NC(=O)c1cc2c(F)cccc2[nH]1)C(=O)NN(C[C@@H]1CCNC1=O)C(=O)[C@H](F)Cl [8a, N-((S)-1-(2-((R)-2-Chloro-2-fluoroacetyl)-2-(((S)-2-oxopyrrolidin-3-yl)methyl)hydrazineyl)-4-methyl-1-oxopentan-2-yl)-4-fluoro-1H-indole-2-carboxamide]
- IC50 (human cathepsin L): > 10000 nM
- IC50 (human cathepsin B): > 10000 nM

Compound: COc1cccc2[nH]c(C(=O)N[C@@H](CC(C)C)C(=O)NN(C[C@H]3CCNC3=O)C(=O)[C@H](F)Cl)cc12 [10b, N-((S)-1-(2-((R)-2-Chloro-2-fluoroacetyl)-2-(((R)-2-oxopyrrolidin-3-yl)methyl)hydrazineyl)-4-methyl-1-oxopentan-2-yl)-4-methoxy-1H-indole-2-carboxamide]
- IC50 (SARS-CoV-2 3CL^pro): 15.6 nM
